How the values were obtained:
CDK2/Cyclin E = biological target: T1, CDK2/Cyclin E (Homo sapiens, UniProt P24941); assay: CDK2/Cyclin E enzymatic phosphorylation assay (Caliper mobility shift); format: biochemical; conditions: read-out: Enzyme CDK2/cyclin E IC50; note: 1.0 mM ATP or ATP Km
T1 construct: purchased Eurofins 14-475
Method: (§1) Reactions proceeded until between 10% to 20% total peptides were phosphorylated at room temperature (25° C.) and were terminated with 35 mM 2,2′,2″,2′″-(ethane-1,2-diyldinitrilo)tetraacetic acid (EDTA). Product was detected using the Caliper mobility shift detection method where the phosphorylated peptide (product) and substrate were electrophoretically separated and measured. Percent activity was plotted against log concentration of compound and points to generate an apparent IC50.

CDK1/Cyclin B1 = biological target: T2, CDK1/Cyclin B1 (Homo sapiens, UniProt P06493); assay: CDK1/Cyclin B1 enzymatic phosphorylation assay (Caliper mobility shift); format: biochemical; conditions: read-out: Enzyme CDK1/cyclin B1 IC50
T2 construct: GST; purchased BPS 40454
Method: as §1

T2 sequence (P06493 whole entry): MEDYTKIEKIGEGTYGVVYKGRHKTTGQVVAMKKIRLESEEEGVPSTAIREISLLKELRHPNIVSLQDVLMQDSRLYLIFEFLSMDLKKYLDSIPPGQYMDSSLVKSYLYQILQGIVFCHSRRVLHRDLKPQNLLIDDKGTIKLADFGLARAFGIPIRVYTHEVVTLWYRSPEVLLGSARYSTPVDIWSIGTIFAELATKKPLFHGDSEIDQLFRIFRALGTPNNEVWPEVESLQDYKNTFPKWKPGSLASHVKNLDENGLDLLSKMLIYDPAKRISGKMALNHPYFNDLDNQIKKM
T2 sequence (P14635 whole entry partner): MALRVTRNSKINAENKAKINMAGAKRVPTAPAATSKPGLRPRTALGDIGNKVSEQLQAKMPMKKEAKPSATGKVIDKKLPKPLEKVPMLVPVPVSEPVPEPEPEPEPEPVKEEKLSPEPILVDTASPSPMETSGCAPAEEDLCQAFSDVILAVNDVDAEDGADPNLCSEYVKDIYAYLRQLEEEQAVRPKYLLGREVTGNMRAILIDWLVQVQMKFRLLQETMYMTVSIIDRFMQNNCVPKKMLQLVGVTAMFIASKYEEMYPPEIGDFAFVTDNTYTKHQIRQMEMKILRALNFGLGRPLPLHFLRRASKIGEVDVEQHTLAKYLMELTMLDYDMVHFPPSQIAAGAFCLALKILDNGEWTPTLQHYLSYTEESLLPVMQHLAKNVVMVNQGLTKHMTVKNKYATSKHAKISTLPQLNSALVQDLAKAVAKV

An IC50 (CDK2/Cyclin E) of 0.5 nM and an IC50 (CDK1/Cyclin B1) of 147 nM were found for `CC(C)c1cc(Nc2cnc3cnn(C[C@@H]4CCCOC4)c3n2)n[nH]1` (single isomer, unassigned) [Example 10, (S)-N-(5-isopropyl-1H-pyrazol-3-yl)-1-((tetrahydro-2H-pyran-3-yl)methyl)-1H-pyrazolo[3,4-b]pyrazin-6-amine or (R)-N-(5-isopropyl-1H-pyrazol-3-yl)-1-((tetrahydro-2H-pyran-3-yl)methyl)-1H-pyrazolo[3,4-b]pyrazin-6-amine] in this work.

An IC50 (CDK2/Cyclin E) of 0.2 nM and an IC50 (CDK1/Cyclin B1) of 104 nM were found for `C[C@@H](c1ccccc1F)n1ncc2ncc(Nc3cc(C4COC4)[nH]n3)nc21` [Example 52, (S)-1-(1-(2-fluorophenyl)ethyl)-N-(5-(oxetan-3-yl)-1H-pyrazol-3-yl)-1H-pyrazolo[3,4-b]pyrazin-6-amine] in this work.

An IC50 (CDK2/Cyclin E) of 44.8 nM and an IC50 (CDK1/Cyclin B1) of 3060 nM were found for `Fc1cncc(Cn2ncc3ncc(Nc4cc(C5COC5)[nH]n4)nc32)c1` [Example 50, 1-((5-fluoropyridin-3-yl)methyl)-N-(5-(oxetan-3-yl)-1H-pyrazol-3-yl)-1H-pyrazolo[3,4-b]pyrazin-6-amine] in this work.

An IC50 (CDK2/Cyclin E) of 1 nM and an IC50 (CDK1/Cyclin B1) of 174 nM were found for `CC(C)c1cc(Nc2cnc3cnn([C@H]4CC[C@H](O)CC4)c3n2)n[nH]1` [Example 57, (1r,4r)-4-(6-((5-isopropyl-1H-pyrazol-3-yl)amino)-1H-pyrazolo[3,4-b]pyrazin-1-yl)cyclohexan-1-ol] in this work.

An IC50 (CDK2/Cyclin E) of 90 nM and an IC50 (CDK1/Cyclin B1) of 7650 nM were found for `Cc1cc(Nc2cnc3cnn([C@H]4CC[C@H](O)CC4)c3n2)n[nH]1` [Example 39, (1r,4r)-4-(6-((5-methyl-1H-pyrazol-3-yl)amino)-1H-pyrazolo[3,4-b]pyrazin-1-yl)cyclohexan-1-ol] in this work.

An IC50 (CDK2/Cyclin E) of 78.1 nM and an IC50 (CDK1/Cyclin B1) of 9140 nM were found for `Cc1cc(Nc2cnc3cnn(Cc4cccnc4)c3n2)n[nH]1` [Example 3, N-(5-methyl-1H-pyrazol-3-yl)-1-(pyridin-3-ylmethyl)-1H-pyrazolo[3,4-b]pyrazin-6-amine] in this work.

An IC50 (CDK2/Cyclin E) of 0.3 nM and an IC50 (CDK1/Cyclin B1) of 93 nM were found for `CC(C)c1cc(Nc2cnc3cnn([C@H](C)c4cccnc4)c3n2)n[nH]1` [Example 40, (R)-N-(5-isopropyl-1H-pyrazol-3-yl)-1-(1-(pyridin-3-yl)ethyl)-1H-pyrazolo[3,4-b]pyrazin-6-amine] in this work.

An IC50 (CDK2/Cyclin E) of 21.4 nM and an IC50 (CDK1/Cyclin B1) of 1650 nM were found for `C[C@H](C1CCOCC1)n1ncc2ncc(Nc3cc(C4COC4)[nH]n3)nc21` [Example 43, (R)-N-(5-(oxetan-3-yl)-1H-pyrazol-3-yl)-1-(1-(tetrahydro-2H-pyran-4-yl)ethyl)-1H-pyrazolo[3,4-b]pyrazin-6-amine] in this work.

An IC50 (CDK2/Cyclin E) of 0.2 nM and an IC50 (CDK1/Cyclin B1) of 159 nM were found for `CC(C)c1cc(Nc2cnc3cnn([C@@H](C)c4cccnc4)c3n2)n[nH]1` [Example 29, (S)-N-(5-isopropyl-1H-pyrazol-3-yl)-1-(1-(pyridin-3-yl)ethyl)-1H-pyrazolo[3,4-b]pyrazin-6-amine] in this work.

An IC50 (CDK2/Cyclin E) of 2 nM and an IC50 (CDK1/Cyclin B1) of 951 nM were found for `C[C@@H](c1ccccn1)n1ncc2ncc(Nc3cc(C4COC4)[nH]n3)nc21` [Example 55, (S)-N-(5-(oxetan-3-yl)-1H-pyrazol-3-yl)-1-(1-(pyridin-2-yl)ethyl)-1H-pyrazolo[3,4-b]pyrazin-6-amine] in this work.

An IC50 (CDK2/Cyclin E) of 16 nM and an IC50 (CDK1/Cyclin B1) of 1380 nM were found for `Fc1ccc(Cn2ncc3ncc(Nc4cc(C5COC5)[nH]n4)nc32)cc1` [Example 47, 1-(4-fluorobenzyl)-N-(5-(oxetan-3-yl)-1H-pyrazol-3-yl)-1H-pyrazolo[3,4-b]pyrazin-6-amine] in this work.

An IC50 (CDK2/Cyclin E) of 4.5 nM and an IC50 (CDK1/Cyclin B1) of 1380 nM were found for `Cc1cc(Nc2cnc3cnn([C@@H](C)c4cc(F)ccn4)c3n2)n[nH]1` (single isomer, unassigned) [Example 19, (S)-1-(1-(4-fluoropyridin-2-yl)ethyl)-N-(5-methyl-1H-pyrazol-3-yl)-1H-pyrazolo[3,4-b]pyrazin-6-amine or (R)-1-(1-(4-fluoropyridin-2-yl)ethyl)-N-(5-methyl-1H-pyrazol-3-yl)-1H-pyrazolo[3,4-b]pyrazin-6-amine] in this work.

An IC50 (CDK2/Cyclin E) of 4.2 nM and an IC50 (CDK1/Cyclin B1) of 1060 nM were found for `Cc1cc(Nc2cnc3cnn([C@@H](C)c4cccnc4Cl)c3n2)n[nH]1` [Example 26, (S)-1-(1-(2-chloropyridin-3-yl)ethyl)-N-(5-methyl-1H-pyrazol-3-yl)-1H-pyrazolo[3,4-b]pyrazin-6-amine] in this work.

An IC50 (CDK2/Cyclin E) of 15.1 nM and an IC50 (CDK1/Cyclin B1) of 3230 nM were found for `Cc1nc2cnn(Cc3cccnc3)c2nc1Nc1cc(C(C)C)[nH]n1` [Example 18, N-(5-isopropyl-1H-pyrazol-3-yl)-5-methyl-1-(pyridin-3-ylmethyl)-1H-pyrazolo[3,4-b]pyrazin-6-amine] in this work.

An IC50 (CDK2/Cyclin E) of 0.5 nM and an IC50 (CDK1/Cyclin B1) of 119 nM were found for `CC(C)c1cc(Nc2cnc3cnn(C[C@@H]4CCOC4)c3n2)n[nH]1` (single isomer, unassigned) [Example 12, (S)-N-(5-isopropyl-1H-pyrazol-3-yl)-1-((tetrahydrofuran-3-yl)methyl)-1H-pyrazolo[3,4-b]pyrazin-6-amine or (R)-N-(5-isopropyl-1H-pyrazol-3-yl)-1-((tetrahydrofuran-3-yl)methyl)-1H-pyrazolo[3,4-b]pyrazin-6-amine] in this work.

An IC50 (CDK2/Cyclin E) of 5.4 nM and an IC50 (CDK1/Cyclin B1) of 595 nM were found for `C[C@@H](c1cc(Nc2cnc3cnn(CC4CCOCC4)c3n2)n[nH]1)C(F)F` (single isomer, unassigned) [Example 21] in this work.

An IC50 (CDK2/Cyclin E) of 14.1 nM and an IC50 (CDK1/Cyclin B1) of 1540 nM were found for `COc1ncccc1[C@H](C)n1ncc2ncc(Nc3cc(C)[nH]n3)nc21` [Example 23, (S)-1-(1-(2-methoxypyridin-3-yl)ethyl)-N-(5-methyl-1H-pyrazol-3-yl)-1H-pyrazolo[3,4-b]pyrazin-6-amine] in this work.

An IC50 (CDK2/Cyclin E) of 16 nM and an IC50 (CDK1/Cyclin B1) of 1930 nM were found for `CC(C)c1cc(Nc2cnc3cnn(CC4CCNCC4)c3n2)n[nH]1` [Example 62, N-(5-isopropyl-1H-pyrazol-3-yl)-1-(piperidin-4-ylmethyl)-1H-pyrazolo[3,4-b]pyrazin-6-amine] in this work.

An IC50 (CDK2/Cyclin E) of 0.6 nM and an IC50 (CDK1/Cyclin B1) of 144 nM were found for `CC(C)c1cc(Nc2cnc3cnn(C[C@H]4CCCOC4)c3n2)n[nH]1` (single isomer, unassigned) [Example 9, (R)-N-(5-isopropyl-1H-pyrazol-3-yl)-1-((tetrahydro-2H-pyran-3-yl)methyl)-1H-pyrazolo[3,4-b] pyrazin-6-amine or (S)-N-(5-isopropyl-1H-pyrazol-3-yl)-1-((tetrahydro-2H-pyran-3-yl)methyl)-1H-pyrazolo[3,4-b]pyrazin-6-amine] in this work.

An IC50 (CDK2/Cyclin E) of 1.3 nM and an IC50 (CDK1/Cyclin B1) of 234 nM were found for `Cc1nn(Cc2cccnc2)c2nc(Nc3cc(C(C)C)[nH]n3)cnc12` [Example 7, N-(5-isopropyl-1H-pyrazol-3-yl)-3-methyl-1-(pyridin-3-ylmethyl)-1H-pyrazolo[3,4-b]pyrazin-6-amine] in this work.

An IC50 (CDK2/Cyclin E) of 13.2 nM and an IC50 (CDK1/Cyclin B1) of 1880 nM were found for `CC(C)c1cc(Nc2cnc3cnn(C[C@H](C)CO)c3n2)n[nH]1` [Example 61, (S)-3-(6-((5-isopropyl-1H-pyrazol-3-yl)amino)-1H-pyrazolo[3,4-b]pyrazin-1-yl)-2-methylpropan-1-ol] in this work.

An IC50 (CDK2/Cyclin E) of 1.8 nM and an IC50 (CDK1/Cyclin B1) of 422 nM were found for `C[C@@H](c1cccc(F)c1)n1ncc2ncc(Nc3cc(C4COC4)[nH]n3)nc21` [Example 51, (S)-1-(1-(3-fluorophenyl)ethyl)-N-(5-(oxetan-3-yl)-1H-pyrazol-3-yl)-1H-pyrazolo[3,4-b]pyrazin-6-amine] in this work.

An IC50 (CDK2/Cyclin E) of 1.7 nM and an IC50 (CDK1/Cyclin B1) of 334 nM were found for `C[C@@H](C1CCOCC1)n1ncc2ncc(Nc3cc(C4COC4)[nH]n3)nc21` [Example 41, (S)-N-(5-(oxetan-3-yl)-1H-pyrazol-3-yl)-1-(1-(tetrahydro-2H-pyran-4-yl)ethyl)-1H-pyrazolo[3,4-b]pyrazin-6-amine] in this work.

An IC50 (CDK2/Cyclin E) of 96.1 nM and an IC50 (CDK1/Cyclin B1) of 10000 nM were found for `Cc1cc(Nc2cnc3c(Cl)nn([C@@H](C)c4cccnc4)c3n2)n[nH]1` [Example 27, (S)-3-chloro-N-(5-methyl-1H-pyrazol-3-yl)-1-(1-(pyridin-3-yl)ethyl)-1H-pyrazolo[3,4-b]pyrazin-6-amine] in this work.

An IC50 (CDK2/Cyclin E) of 0.1 nM and an IC50 (CDK1/Cyclin B1) of 57.8 nM were found for `C[C@@H](c1cccnc1)n1ncc2ncc(Nc3cc(C4CC4)[nH]n3)nc21` [Example 31, (S)-N-(5-cyclopropyl-1H-pyrazol-3-yl)-1-(1-(pyridin-3-yl)ethyl)-1H-pyrazolo[3,4-b]pyrazin-6-amine] in this work.

An IC50 (CDK2/Cyclin E) of 1.9 nM and an IC50 (CDK1/Cyclin B1) of 330 nM were found for `C[C@@H](c1ccc(F)cc1)n1ncc2ncc(Nc3cc(C4COC4)[nH]n3)nc21` [Example 53, (S)-1-(1-(4-fluorophenyl)ethyl)-N-(5-(oxetan-3-yl)-1H-pyrazol-3-yl)-1H-pyrazolo[3,4-b]pyrazin-6-amine] in this work.

An IC50 (CDK2/Cyclin E) of 76.1 nM and an IC50 (CDK1/Cyclin B1) of 10000 nM were found for `C[C@@H](c1ccccn1)n1ncc2ncc(Nc3cc(C#N)[nH]n3)nc21` [Example 25, (S)-3-((1-(1-(pyridin-2-yl)ethyl)-1H-pyrazolo[3,4-b]pyrazin-6-yl)amino)-1H-pyrazole-5-carbonitrile] in this work.

An IC50 (CDK2/Cyclin E) of 18.5 nM and an IC50 (CDK1/Cyclin B1) of 2220 nM were found for `c1ccc(Cn2ncc3ncc(Nc4cc(C5COC5)[nH]n4)nc32)cc1` [Example 44, 1-benzyl-N-(5-(oxetan-3-yl)-1H-pyrazol-3-yl)-1H-pyrazolo[3,4-b]pyrazin-6-amine] in this work.

An IC50 (CDK2/Cyclin E) of 14.8 nM and an IC50 (CDK1/Cyclin B1) of 2370 nM were found for `CC(=O)N1CCC[C@H](n2ncc3ncc(Nc4cc(C(C)C)[nH]n4)nc32)C1` [Example 59, (S)-1-(3-(6-((5-isopropyl-1H-pyrazolo-3-yl)amino)-1H-pyrazolo[3,4-b]pyrazin-1-yl)piperidin-1-yl)ethan-1-one] in this work.

An IC50 (CDK2/Cyclin E) of 21.5 nM and an IC50 (CDK1/Cyclin B1) of 2990 nM were found for `CC(C)c1cc(Nc2cnc3cnn(CCCO)c3n2)n[nH]1` [Example 1, 3-(6-((5-isopropyl-1H-pyrazol-3-yl)amino)-1H-pyrazolo[3,4-b]pyrazin-1-yl)propan-1-ol] in this work.

An IC50 (CDK2/Cyclin E) of 5.6 nM and an IC50 (CDK1/Cyclin B1) of 2700 nM were found for `Cc1cc(Nc2cnc3c(Cl)nn([C@@H](C)c4cccnc4F)c3n2)n[nH]1` [Example 28, (S)-3-chloro-1-(1-(2-fluoropyridin-3-yl)ethyl)-N-(5-methyl-1H-pyrazol-3-yl)-1H-pyrazolo[3,4-b]pyrazin-6-amine] in this work.
